In patent US8193200B2, “Antagonists of A2B adenosine receptors for treatment of inflammatory bowel disease” (University of Virginia Patent Foundation, priority 2007, dated 2012):

Assays:
Format in all cases: in vivo, mouse
[1] = test system: colonic crypt epithelial cells; assay: ki67 proliferation and caspase-3/TUNEL apoptosis staining of colonic crypts, DSS colitis
Procedure: Apoptosis: Apoptotic cells were determined in colonic crypts of the mice that received ATL-801. Apoptotic cells were identified by fluorescent double staining using caspase-3 and terminal deoxyuridine nick-end labeling (TUNEL) as a secondary method to detect apoptosis. After deparaffinization and hydration, paraffin sections of colon were retrieved for antigens in a pressure cooker with sodium citrate (pH 6.0, 10 mM) for 10 min. After cooling, the sections were quenched in 3% H2O2 in methanol and then blocked with normal goat serum. Caspase-3 was detected with rabbit anti-cleaved-caspase-3 IgG overnight at 4° C. followed by a labeled streptavidin-biotin (LSAB) staining method consisting of successive application of secondary antibody-streptavidin, biotin-horseradish peroxidase, and cyanine-3 tyramide. TUNEL immunohistochemistry was performed using the in situ cell death detection kit, fluorescein, as described by the manufacturer (Roche Applied Science, Indianapolis, Ind.). For IL-10 model, frozen sections were used to stain cleaved caspase 3 and TUNEL. Nuclei were attained by Hoechst to count total crypt cell number. The apoptotic index for both morphologically defined apoptotic cells and fluorescent staining with caspase-3 was calculated as the number of apoptotic cells per crypt. […]

IL-6 and MIP-2 mRNA = assay: Real time PCR of proinflammatory cytokine mRNA in colonic tissue, DSS model
Procedure: In the DSS-model proinflammatory cytokines were measured by real time PCR. Total RNA was extracted from DSS treated, DSS+ATL-801 and control colonic tissue using the TRizol reagent. After quantification, a reverse transcription (RT) reaction was performed with 2 μg of each sample and oligo-dT primer, using the SuperScript First strand synthesis system for RT-PCR (Invitrogen, CA). The real-time iCycler sequence detection system (Bio-Rad) was used for the real-time RT-PCR. […] The 36B4 expression levels were used as reference, and fold-induction was calculated using a standard curve. For graphical representation of quantitative PCR data, raw cycle threshold values (Ct values) obtained for treated mice were deducted from the Ct value obtained for internal 36B4 transcript levels, using the Ct method as follows: ΔΔCT=(Ct Target−Ct 36B4)treatment−(Ct Target−Ct 36B4) no treatment, and the final data were derived from 2^−ΔΔCT. […] In IL-10−/− model proinflammatory cytokines were measured by ELISA in organ cultures. […] Supernatants were harvested after 24 hours, centrifuged and stored at −80° C. before IL-6 and keratinocyte derived chemokine, KC levels were measured by ELISA. […] IL-8 was measured in the supernatants by ELISA.

[2] = test system: IL-10-/- mice with piroxicam induced colitis; assay: Piroxicam induced colitis in IL-10-/- mice: body weight, histological score, colon length
Text: IL-10^−/− mice spontaneously develop a chronic, T-cell mediated, transmural colitis that shares many features with human Crohn's disease. Based on this model, there have been several clinical trials using IL-10 treatment for IBD in human patients 13 However, due to the inconsistency in the development of spontaneous colitis in IL-10^−/− mice, Berg and his colleagues have described rapid development of colitis in IL-10^−/− mice treated with a nonsteroidal anti-inflammatory drug piroxicam (NSAID)^9. Accordingly, mice were treated with piroxicam, 200 mg/kg diet, for two weeks to induce colitis. Mice were administered ATL-801 for a week prior to treatment with piroxicam, and ATL-801 treatment was continued during piroxicam administration. Two weeks after the induction of colitis, mice were euthanized, and colonic tissue was analyzed.
(§1) Assessment of body weights, stool consistency, and the presence of occult/gross blood by a guaic test (Hemoccult Sensa; Beckman Coulter, Fullerton, Calif.) were performed daily for each mouse. Colitis was quantified with a clinical and histological score, as described by Cooper, et. al. Clinical score was based on weight loss, stool consistency, and fecal blood (score range 0-12). Histological scoring was performed based on three variables, extent of inflammatory infiltrate, mucosal ulcers and severity of crypt (score range 0-11). IL-10^−/− mouse colon histological scoring (ranging from 0 to 4) was performed as described by Berg, et. al. to assess intestinal lesions and their severity.

[3] = test system: C57BL/6 mice with DSS-induced colitis; assay: DSS-induced colitis: clinical and histological scoring, colon weight and length; conditions: for Total Lesion Score (histological score): score range 0-11, DSS 9.1 ± 2.1
Procedure: Colitis was induced in male C57BL/6 mice by oral administration of DSS (molecular wt. 50000; ICN Biomedicals, Aurora, Ohio) at 3% (wt/vol) in tap water ad libitum for 6 days. Age-matched male wild-type C57BL6 mice receiving tap water served as controls. Mice were observed daily and evaluated for changes in body weight and development of clinical symptoms. Mice were given ATL-801 10 mg/Kg diet approximately 20 μg/day/mice) during the administration of DSS.
as §1

CCCn1c(=O)n(C2CC2)c(=O)c2[nH]c(-c3ccc(N(CC)C(=O)c4cccnc4)nc3)nc21 [ATL-801]
proliferation index, ki67 positive cells ([1]; DSS+ATL, average positive cells per crypt, control 18.67±1.62, DSS 5.95±0.31): 15.13±0.44
TUNEL positive cells out of total number of cells counted in each crypt ([1]; DSS+ATL-801, DSS 16.3±2.3): 3.7±0.7
IL-6 mRNA in colonic mucosal tissue (IL-6 and MIP-2 mRNA; DSS + antagonist, normalized to 36B4, DSS 7.2±1.7): 1.8±0.7 fold increase compared to untreated
MIP-2 mRNA levels (IL-6 and MIP-2 mRNA; DSS+ATL-801, fold increase over control (FIG. 5B), DSS 28.1±3.8): 13.62±3.0
histology, ATL-801 alone ([2]; IL-10-/- mice treated with ATL-801 alone (data not shown)): normal histology
colon length ([2]; IL-10-/- mice, ATL-801+piroxicam, piroxicam 7.0±0.25 cm): 8.4±0.23 cm
mean histological score ([2]; IL-10-/- mice, piroxicam + ATL-801, score 0 to 4, piroxicam 2.8±1.0): 1.3±0.3
body weight change (Δ) ([2]; IL-10-/- mice, piroxicam+ATL-801 10 mg/Kg diet, FIG. 8A percent body weight change, piroxicam Δ−2.05±0.7): +0.2±0.5
Ulceration (histological assessment) ([3]; 3% DSS 6 days + ATL 10 mg/Kg, DSS 2.6 ± 0.6): 1.0 ± 1
Crypt Damage (histological assessment) ([3]; 3% DSS 6 days + ATL 10 mg/Kg, DSS 2.8 ± 1.5): 1.9 ± 0.6
Inflammation (histological assessment) ([3]; 3% DSS 6 days + ATL 10 mg/Kg, DSS 3.7 ± 0.2): 1.2 ± 0.2
Total Lesion Score (histological score) ([3]; 3% DSS 6 days + ATL 10 mg/Kg): 4.1 ± 1.8
Total Lesion Score (histological score) ([3]; 3% DSS 6 days + ATL 10 mg/Kg, listed as antagonist): 4.1±1.8
clinical score (clinical disease activity score) ([3]; DSS 3% 6 days + ATL-801 10 mg/Kg in diet, score range 0-12, DSS alone 9.4±1.1): 4.4±1.5
colon length ([3]; DSS 6 days + antagonist 10 mg/Kg, DSS alone 4.5±0.26 cm): 6.04±0.16 cm
colon weight ([3]; DSS + A2b antagonist, colon with solid stool pellets, DSS alone 0.26±0.03 g): 0.48 ± 0.03 g
stool consistency ([3]; DSS + A2b receptor antagonist, DSS-fed mice had watery diarrhea): solid stools
colon length, group not administered DSS ([3]; antagonist without DSS, vehicle 6.5±0.25): 7.5 cm
adverse effects on clinical score, ATL-801 alone ([3]; mice given ATL-801 alone, no DSS): did not show any adverse affects on clinical score
histological signs of inflammation, water control group receiving antagonist ([3]; no DSS): not detected
